The record followed here is ChEMBL document CHEMBL1148593, “Matrix metalloproteinase target family landscape: a chemometrical approach to ligand selectivity based on protein binding site analysis” (J Med Chem, 2006).

In one assay the target is T1, Interstitial collagenase (Homo sapiens, UniProt P03956).
T1 sequence (P03956 whole entry): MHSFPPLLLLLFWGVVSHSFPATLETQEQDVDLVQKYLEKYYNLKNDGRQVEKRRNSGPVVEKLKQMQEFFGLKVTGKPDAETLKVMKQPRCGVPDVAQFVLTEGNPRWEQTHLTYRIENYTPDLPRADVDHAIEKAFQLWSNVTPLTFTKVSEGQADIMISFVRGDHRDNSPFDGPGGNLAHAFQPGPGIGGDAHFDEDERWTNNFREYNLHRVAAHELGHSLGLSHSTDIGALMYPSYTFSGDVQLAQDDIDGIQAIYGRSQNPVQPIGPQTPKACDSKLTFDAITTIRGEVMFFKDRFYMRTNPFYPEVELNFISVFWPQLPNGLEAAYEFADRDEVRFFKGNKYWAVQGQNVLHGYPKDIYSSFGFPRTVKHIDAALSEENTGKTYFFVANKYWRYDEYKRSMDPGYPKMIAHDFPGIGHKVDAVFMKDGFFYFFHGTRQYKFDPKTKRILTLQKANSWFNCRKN
Kind of assay: Binding affinity to MMP1.

Assay [1] has as its target 72 kDa type IV collagenase (Homo sapiens, UniProt P08253). Kind of assay: Binding affinity to MMP2.
Another assay deals with Stromelysin-1 (Homo sapiens, UniProt P08254). Kind of assay: Binding affinity to MMP3.
Chain of Stromelysin-1 (P08254 whole entry): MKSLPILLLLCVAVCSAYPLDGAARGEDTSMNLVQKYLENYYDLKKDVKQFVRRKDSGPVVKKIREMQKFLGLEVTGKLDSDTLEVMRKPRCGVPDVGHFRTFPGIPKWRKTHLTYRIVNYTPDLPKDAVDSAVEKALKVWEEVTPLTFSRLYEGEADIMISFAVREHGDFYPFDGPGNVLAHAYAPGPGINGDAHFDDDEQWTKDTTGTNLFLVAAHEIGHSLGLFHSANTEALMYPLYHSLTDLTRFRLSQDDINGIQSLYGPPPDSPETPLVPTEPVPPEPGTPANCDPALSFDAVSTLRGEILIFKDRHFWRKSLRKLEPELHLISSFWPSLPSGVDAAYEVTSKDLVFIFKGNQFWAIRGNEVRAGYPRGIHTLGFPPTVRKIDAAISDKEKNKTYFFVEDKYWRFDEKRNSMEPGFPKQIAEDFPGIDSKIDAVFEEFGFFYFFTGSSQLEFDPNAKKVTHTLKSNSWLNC
Another assay has as its target Neutrophil collagenase (Homo sapiens, UniProt P22894). Kind of assay: Binding affinity to MMP8.
The target of a further assay is T2, Matrilysin (Homo sapiens, UniProt P09237).
T2 sequence (P09237 whole entry): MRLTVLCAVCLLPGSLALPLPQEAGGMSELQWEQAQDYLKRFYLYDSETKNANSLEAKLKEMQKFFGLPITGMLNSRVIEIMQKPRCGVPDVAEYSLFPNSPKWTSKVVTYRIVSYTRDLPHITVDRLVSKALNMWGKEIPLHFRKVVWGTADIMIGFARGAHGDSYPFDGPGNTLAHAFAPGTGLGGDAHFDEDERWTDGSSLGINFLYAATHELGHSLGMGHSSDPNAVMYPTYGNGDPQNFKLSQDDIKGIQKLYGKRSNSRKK
Kind of assay: Binding affinity to MMP7.

For assay [2], the target named is T3, Interstitial collagenase (Homo sapiens) (UniProt P03956).
T3 sequence (whole entry): T1 sequence (P03956 whole entry)
Kind of assay: Inhibition of MMP1 at 2 uM.

The target of assay [3] is T4, Matrilysin (Homo sapiens) (UniProt P09237).
T4 sequence (whole entry): T2 sequence (P09237 whole entry)
Kind of assay: Inhibition of MMP7 at 2 uM.

A further assay addresses T5, Stromelysin-3 (Homo sapiens, UniProt P24347).
T5 sequence (P24347 whole entry): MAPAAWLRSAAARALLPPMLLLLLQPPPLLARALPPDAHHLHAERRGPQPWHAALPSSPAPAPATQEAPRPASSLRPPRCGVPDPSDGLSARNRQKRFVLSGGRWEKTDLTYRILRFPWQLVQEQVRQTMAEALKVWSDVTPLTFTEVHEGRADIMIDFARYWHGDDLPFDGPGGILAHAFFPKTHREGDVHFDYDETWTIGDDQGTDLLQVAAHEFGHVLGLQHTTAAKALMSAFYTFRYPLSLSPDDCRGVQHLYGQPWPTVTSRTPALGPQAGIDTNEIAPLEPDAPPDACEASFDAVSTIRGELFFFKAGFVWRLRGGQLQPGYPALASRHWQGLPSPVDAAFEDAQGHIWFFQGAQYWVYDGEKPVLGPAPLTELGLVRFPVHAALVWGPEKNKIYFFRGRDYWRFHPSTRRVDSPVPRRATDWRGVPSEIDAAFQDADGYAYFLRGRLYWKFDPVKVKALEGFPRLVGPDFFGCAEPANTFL
Kind of assay: Binding affinity to MMP11.

In assay [4] the target is Matrix metalloproteinase-9 (Homo sapiens, UniProt P14780). Kind of assay: Binding affinity to MMP9.
Chain of Matrix metalloproteinase-9 (P14780 whole entry): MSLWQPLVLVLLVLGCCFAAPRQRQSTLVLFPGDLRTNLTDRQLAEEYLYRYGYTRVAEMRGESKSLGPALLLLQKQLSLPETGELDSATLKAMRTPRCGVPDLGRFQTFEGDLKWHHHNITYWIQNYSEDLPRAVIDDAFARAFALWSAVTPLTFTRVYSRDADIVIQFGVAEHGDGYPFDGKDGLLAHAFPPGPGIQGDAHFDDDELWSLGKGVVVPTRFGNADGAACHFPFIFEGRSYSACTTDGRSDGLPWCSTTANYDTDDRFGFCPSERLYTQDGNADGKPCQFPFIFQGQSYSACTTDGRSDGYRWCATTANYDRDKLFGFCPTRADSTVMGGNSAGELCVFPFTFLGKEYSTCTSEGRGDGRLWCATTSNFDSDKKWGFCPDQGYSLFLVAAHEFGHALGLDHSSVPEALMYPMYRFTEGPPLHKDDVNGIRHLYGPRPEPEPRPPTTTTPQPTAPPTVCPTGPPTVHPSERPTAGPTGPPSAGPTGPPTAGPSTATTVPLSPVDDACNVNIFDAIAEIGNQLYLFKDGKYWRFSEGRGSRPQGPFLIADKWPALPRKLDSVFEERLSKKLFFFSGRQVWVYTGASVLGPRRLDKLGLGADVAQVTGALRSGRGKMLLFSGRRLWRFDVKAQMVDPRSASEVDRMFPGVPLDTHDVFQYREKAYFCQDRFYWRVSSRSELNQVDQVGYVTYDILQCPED

Chain of Neutrophil collagenase (P22894 whole entry): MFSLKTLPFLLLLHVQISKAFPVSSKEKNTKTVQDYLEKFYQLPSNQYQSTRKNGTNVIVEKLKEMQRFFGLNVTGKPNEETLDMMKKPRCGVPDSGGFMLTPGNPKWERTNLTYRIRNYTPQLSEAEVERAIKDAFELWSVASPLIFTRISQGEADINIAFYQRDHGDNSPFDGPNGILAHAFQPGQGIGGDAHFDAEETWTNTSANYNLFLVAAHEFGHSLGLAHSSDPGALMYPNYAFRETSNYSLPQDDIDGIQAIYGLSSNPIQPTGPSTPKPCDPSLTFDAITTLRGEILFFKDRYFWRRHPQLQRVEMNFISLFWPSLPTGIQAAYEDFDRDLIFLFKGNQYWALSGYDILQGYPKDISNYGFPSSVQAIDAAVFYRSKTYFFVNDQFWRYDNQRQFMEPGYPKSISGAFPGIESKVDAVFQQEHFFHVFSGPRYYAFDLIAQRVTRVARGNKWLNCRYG
Chain of 72 kDa type IV collagenase (P08253 whole entry): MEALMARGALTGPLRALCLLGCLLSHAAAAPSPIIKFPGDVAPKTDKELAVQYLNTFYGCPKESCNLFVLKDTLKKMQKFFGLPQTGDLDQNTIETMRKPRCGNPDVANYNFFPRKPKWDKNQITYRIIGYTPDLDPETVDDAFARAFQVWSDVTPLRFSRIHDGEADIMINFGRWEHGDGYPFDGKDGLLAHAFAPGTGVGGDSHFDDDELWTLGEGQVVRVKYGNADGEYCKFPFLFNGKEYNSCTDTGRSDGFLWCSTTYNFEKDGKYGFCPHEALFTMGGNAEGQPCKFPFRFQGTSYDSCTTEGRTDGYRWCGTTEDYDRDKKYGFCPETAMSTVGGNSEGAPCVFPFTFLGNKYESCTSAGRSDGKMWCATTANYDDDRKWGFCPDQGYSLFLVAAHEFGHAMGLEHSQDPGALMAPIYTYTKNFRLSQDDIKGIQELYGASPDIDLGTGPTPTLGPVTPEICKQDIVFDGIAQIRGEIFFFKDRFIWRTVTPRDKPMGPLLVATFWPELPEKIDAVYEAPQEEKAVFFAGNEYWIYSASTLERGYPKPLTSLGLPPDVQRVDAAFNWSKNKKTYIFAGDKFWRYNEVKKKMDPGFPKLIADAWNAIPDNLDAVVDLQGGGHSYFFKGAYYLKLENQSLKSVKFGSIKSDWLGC

As usually defined, the IC50 is the concentration needed to halve the response being measured. `CC(C)CC(C(=O)N[C@H]1CCCCCCCCCCNC1=O)[C@H](O)C(=O)NO` (stereo not given in full): the IC50 at Interstitial collagenase was 30 nM; in assay [1], 20 nM; on Stromelysin-1, 500 nM; at Neutrophil collagenase, 20 nM; on Matrilysin, 200 nM.
In general, inhibition refers to the share of the control response that was lost under treatment. Low values mean a weak effect, high ones a strong effect. One may read the Ki as a dissociation constant, usually derived from enzyme kinetics or from competition with a known ligand. Regarding `NC(=O)C(Cc1c[nH]c2ccccc12)NC(=O)C(CCCc1ccccc1)CP(=O)(O)C(Cc1ccccc1)NC(=O)OCc1ccccc1` (stereo not given), the inhibition in assay [2] amounted to 23%; in assay [3] it was 8%. On Neutrophil collagenase, this compound registered a 50% inhibitory concentration (IC50) of 2.5 nM. The same compound came in with a Ki at Stromelysin-3 of 5 nM.
Regarding `CNC(=O)C1CCCCNC(=O)CCC(C(=O)O)NC(CCc2ccccc2)C(=O)N1` (stereo not given), the Ki in assay [1] was determined as 8100 nM; at Stromelysin-1, 2900 nM; in assay [4], 6600 nM; at Neutrophil collagenase, 17 nM.
Turning to `O=C(O)C1Cc2ccccc2CN1S(=O)(=O)CCc1ccc(-c2ccc(Cl)cc2)cc1` (stereo not given), the values for the IC50 at Interstitial collagenase and at Neutrophil collagenase were above 10000 nM and 10 nM, respectively.
In the case of `O=C(Nc1ccc(S(=O)(=O)C[C@@H](Cc2c[nH]c3ccccc23)C(=O)O)cc1)c1ccc(Br)cc1`, the half-maximal inhibitory concentration (IC50) is above 1000 nM at Interstitial collagenase; 2.6 nM in [1]; above 1000 nM on Stromelysin-1; 2.7 nM in assay [4]; above 1000 nM at Matrilysin.
